From PubChem BioAssay (NCI)
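All cell lines were grown in 96-well plates and treated with compound for 48 hours. TGI denotes the concentration required for complete inhibition of growth.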

What was measured:
Assay in all cases: growth of human tumour cells (NCI), 48 h
786-0 renal = tested on: 786-0 renal
A498 renal = tested on: A498 renal
A549 NSCLC = tested on: A549 NSCLC
ACHN renal = tested on: ACHN renal
BT-549 breast = tested on: BT-549 breast
CAKI-1 renal = tested on: CAKI-1 renal
CCRF-CEM leukemia = tested on: CCRF-CEM leukemia
COLO 205 colon = tested on: COLO 205 colon
DU-145 prostate = tested on: DU-145 prostate
EKVX NSCLC = tested on: EKVX NSCLC
HCC-2998 colon = tested on: HCC-2998 colon
HCT-116 colon = tested on: HCT-116 colon
HCT-15 colon = tested on: HCT-15 colon
HL-60(TB) leukemia = tested on: HL-60(TB) leukemia
HOP-62 NSCLC = tested on: HOP-62 NSCLC
HOP-92 NSCLC = tested on: HOP-92 NSCLC
HS 578T breast = tested on: HS 578T breast
HT29 colon = tested on: HT29 colon
IGROV1 ovarian = tested on: IGROV1 ovarian
K-562 leukemia = tested on: K-562 leukemia
KM12 colon = tested on: KM12 colon
LOX IMVI melanoma = tested on: LOX IMVI melanoma
M14 melanoma = tested on: M14 melanoma
MALME-3M melanoma = tested on: MALME-3M melanoma
MCF7 breast = tested on: MCF7 breast
MDA-MB-231 breast = tested on: MDA-MB-231 breast
MDA-MB-435 = tested on: MDA-MB-435
MOLT-4 leukemia = tested on: MOLT-4 leukemia
NCI-H226 lung = tested on: NCI-H226 lung
NCI-H23 lung = tested on: NCI-H23 lung
NCI-H522 lung = tested on: NCI-H522 lung
NCI/ADR-RES ovarian = tested on: NCI/ADR-RES ovarian
OVCAR-3 ovarian = tested on: OVCAR-3 ovarian
OVCAR-4 ovarian = tested on: OVCAR-4 ovarian
OVCAR-5 ovarian = tested on: OVCAR-5 ovarian
OVCAR-8 ovarian = tested on: OVCAR-8 ovarian
PC-3 prostate = tested on: PC-3 prostate
RPMI-8226 leukemia = tested on: RPMI-8226 leukemia
RXF 393 renal = tested on: RXF 393 renal
SF-268 CNS = tested on: SF-268 CNS
SF-295 CNS = tested on: SF-295 CNS
SF-539 CNS = tested on: SF-539 CNS
SK-MEL-2 melanoma = tested on: SK-MEL-2 melanoma
SK-MEL-28 melanoma = tested on: SK-MEL-28 melanoma
SK-MEL-5 melanoma = tested on: SK-MEL-5 melanoma
SK-OV-3 ovarian = tested on: SK-OV-3 ovarian
SN12C renal = tested on: SN12C renal
SNB-19 CNS = tested on: SNB-19 CNS
SNB-75 CNS = tested on: SNB-75 CNS
SR leukemia = tested on: SR leukemia
SW-620 colon = tested on: SW-620 colon
T-47D breast = tested on: T-47D breast
TK-10 renal = tested on: TK-10 renal
U251 CNS = tested on: U251 CNS
UACC-257 melanoma = tested on: UACC-257 melanoma
UACC-62 melanoma = tested on: UACC-62 melanoma
UO-31 renal = tested on: UO-31 renal

With `c1ccc(-c2ccc(-c3ccc(C4=NCCN4)cc3)o2)cc1` the TGI (786-0 renal) was 3.1 µM, the TGI (A498 renal) was 3.65 µM and the TGI (A549 NSCLC) was 7.8 µM. It also gave a TGI (ACHN renal) of 7.97 µM, a TGI (BT-549 breast) of 17.3 µM and a TGI (CAKI-1 renal) of 5.36 µM. For the same compound, the TGI (CCRF-CEM leukemia) was 4.46 µM, the TGI (COLO 205 colon) was 3.31 µM and the TGI (DU-145 prostate) was 10.3 µM. The TGI (EKVX NSCLC) was 10.8 µM, the TGI (HCC-2998 colon) was 2.81 µM and the TGI (HCT-116 colon) was 3.42 µM. The TGI (HCT-15 colon) was 4.19 µM, the TGI (HL-60(TB) leukemia) was 3.74 µM and the TGI (HOP-62 NSCLC) was 12.3 µM. It also gave a TGI (HOP-92 NSCLC) of 5.03 µM, a TGI (HS 578T breast) of 2.8 µM and a TGI (HT29 colon) of 4.94 µM. It also gave a TGI (IGROV1 ovarian) of 7.52 µM, a TGI (K-562 leukemia) of 3.44 µM and a TGI (KM12 colon) of 4.43 µM. The TGI (LOX IMVI melanoma) was 4.01 µM, the TGI (M14 melanoma) was 3.1 µM and the TGI (MALME-3M melanoma) was 2.17 µM. The TGI (MCF7 breast) was 3.68 µM, the TGI (MDA-MB-231 breast) was 3.89 µM and the TGI (MDA-MB-435) was 3.84 µM. For the same compound, the TGI (MOLT-4 leukemia) was 4.59 µM, the TGI (NCI-H226 lung) was 6.15 µM and the TGI (NCI-H23 lung) was 17.5 µM. For the same compound, the TGI (NCI-H522 lung) was 4.21 µM, the TGI (NCI/ADR-RES ovarian) was 19.7 µM and the TGI (OVCAR-3 ovarian) was 18 µM. It also gave a TGI (OVCAR-4 ovarian) of 15 µM, a TGI (OVCAR-5 ovarian) of 7.9 µM and a TGI (OVCAR-8 ovarian) of 15.2 µM. The TGI (PC-3 prostate) was 5.54 µM, the TGI (RPMI-8226 leukemia) was 2.88 µM and the TGI (RXF 393 renal) was 6.53 µM. It also gave a TGI (SF-268 CNS) of 8.4 µM, a TGI (SF-295 CNS) of 3.82 µM and a TGI (SF-539 CNS) of 4.4 µM. The TGI (SK-MEL-2 melanoma) was 3.51 µM, the TGI (SK-MEL-28 melanoma) was 3.75 µM and the TGI (SK-MEL-5 melanoma) was 3.92 µM. It also gave a TGI (SK-OV-3 ovarian) of 11.5 µM, a TGI (SN12C renal) of 11.4 µM and a TGI (SNB-19 CNS) of 6.3 µM. It also gave a TGI (SNB-75 CNS) of 5.17 µM, a TGI (SR leukemia) of 7.43 µM and a TGI (SW-620 colon) of 4.42 µM. For the same compound, the TGI (T-47D breast) was 7.06 µM, the TGI (TK-10 renal) was 11.4 µM and the TGI (U251 CNS) was 3.93 µM. It also gave a TGI (UACC-257 melanoma) of 4.89 µM, a TGI (UACC-62 melanoma) of 3.2 µM and a TGI (UO-31 renal) of 3.14 µM.
